Assay results published in patent publication US20160251332A1, “Herbicidal Compounds” (SYNGENTA PARTICIPATIONS AG, priority 2013, published 2016).

tested on: Abutilon theophrasti; assay: Post-emergence herbicidal activity, ABUTH; assay type: in vivo; conditions: Application post-emergence, 1000 g/Ha, evaluated after 13 days, scale 0-5
Experimental: (§1) Seeds of a variety of test species were sown in standard soil in pots. After 8 days cultivation (post-emergence) under controlled conditions in a glasshouse (at 24/16° C., day/night; 14 hours light; 65% humidity), the plants were sprayed with an aqueous spray solution derived from the formulation of the technical active ingredient in acetone/water (50:50) solution containing 0.5% Tween 20 (polyoxyethelyene sorbitan monolaurate, CAS RN 9005-64-5). The test plants were then grown in a glasshouse under controlled conditions (at 24/16° C., day/night; 14 hours light; 65% humidity) and watered twice daily. After 13 days, the test was evaluated (5=total damage to plant; 0=no damage to plant).

Which ABUTH damage score does the source give for `CN(C)C(=O)c1cccc(-c2cnc(N3C(=O)N(C)CC3O)cc2C(F)(F)F)c1` (stereo not drawn) [Compound A12] here?
Its ABUTH damage score is 5.

`CN1CC(O)N(c2cc(C(F)(F)F)c(-c3ccc(F)cc3)cn2)C1=O` (stereo not drawn) [Compound A2] was tested. Which ABUTH damage score did it give?
Its ABUTH damage score is 5.

For `COc1ccc(-c2cnc(N3C(=O)N(C)CC3O)cc2C(F)(F)F)c(OC)c1` (stereo not drawn) [Compound A15], which ABUTH damage score is on record?
Its ABUTH damage score is 5.

For `COCc1cccc(-c2cnc(N3C(=O)N(C)CC3O)cc2C(F)(F)F)c1` (stereo not drawn) [Compound A13], which ABUTH damage score is on record?
The ABUTH damage score was 5.

tested on: Amaranthus retroflexus; assay: Post-emergence herbicidal activity, AMARE; assay type: in vivo; conditions: Application post-emergence, 1000 g/Ha, evaluated after 13 days, scale 0-5
Experimental: as §1

`CN(C)C(=O)c1cccc(-c2cnc(N3C(=O)N(C)CC3O)cc2C(F)(F)F)c1` (stereo not drawn) [Compound A12] was tested. Which AMARE damage score did it give?
The AMARE damage score was 5.

For `CN1CC(O)N(c2cc(C(F)(F)F)c(-c3ccc(F)cc3)cn2)C1=O` (stereo not drawn) [Compound A2], which AMARE damage score is on record?
The AMARE damage score was 5.

How did the AMARE damage score turn out when `COc1ccc(-c2cnc(N3C(=O)N(C)CC3O)cc2C(F)(F)F)c(OC)c1` (stereo not drawn) [Compound A15] was run?
The AMARE damage score was 5.

How did the AMARE damage score turn out when `COCc1cccc(-c2cnc(N3C(=O)N(C)CC3O)cc2C(F)(F)F)c1` (stereo not drawn) [Compound A13] was run?
The AMARE damage score was 5.

tested on: Abutilon theophrasti; assay: Pre-emergence herbicidal activity, ABUTH; assay type: in vivo; conditions: Application pre-emergence, 1000 g/Ha, evaluated after 13 days, scale 0-5
Experimental: as §1, with “After” for “After 8 days”, “for one day (pre-emergence)” for “(post-emergence)”

With `CN(C)C(=O)c1cccc(-c2cnc(N3C(=O)N(C)CC3O)cc2C(F)(F)F)c1` (stereo not drawn) [Compound A12] as the molecule, how does the ABUTH damage score read?
Its ABUTH damage score is 3.

For `CN1CC(O)N(c2cc(C(F)(F)F)c(-c3ccc(F)cc3)cn2)C1=O` (stereo not drawn) [Compound A2], which ABUTH damage score is on record?
The ABUTH damage score was 4.

With `COc1ccc(-c2cnc(N3C(=O)N(C)CC3O)cc2C(F)(F)F)c(OC)c1` (stereo not drawn) [Compound A15] as the molecule, how does the ABUTH damage score read?
Its ABUTH damage score is 3.

With `COCc1cccc(-c2cnc(N3C(=O)N(C)CC3O)cc2C(F)(F)F)c1` (stereo not drawn) [Compound A13] as the molecule, how does the ABUTH damage score read?
The ABUTH damage score was 2.

tested on: Zea mays; assay: Pre-emergence herbicidal activity, ZEAMX; assay type: in vivo; conditions: Application pre-emergence, 1000 g/Ha, evaluated after 13 days, scale 0-5
Experimental: as §1, with “After” for “After 8 days”, “for one day (pre-emergence)” for “(post-emergence)”

How did the ZEAMX damage score turn out when `CN(C)C(=O)c1cccc(-c2cnc(N3C(=O)N(C)CC3O)cc2C(F)(F)F)c1` (stereo not drawn) [Compound A12] was run?
The ZEAMX damage score was 0.

Which ZEAMX damage score does the source give for `CN1CC(O)N(c2cc(C(F)(F)F)c(-c3ccc(F)cc3)cn2)C1=O` (stereo not drawn) [Compound A2] here?
Its ZEAMX damage score is 5.

`COc1ccc(-c2cnc(N3C(=O)N(C)CC3O)cc2C(F)(F)F)c(OC)c1` (stereo not drawn) [Compound A15] was tested. Which ZEAMX damage score did it give?
The ZEAMX damage score was 0.

How did the ZEAMX damage score turn out when `COCc1cccc(-c2cnc(N3C(=O)N(C)CC3O)cc2C(F)(F)F)c1` (stereo not drawn) [Compound A13] was run?
Its ZEAMX damage score is 1.

tested on: Alopecurus myosuroides; assay: Post-emergence herbicidal activity, ALOMY; assay type: in vivo; conditions: Application post-emergence, 1000 g/Ha, evaluated after 13 days, scale 0-5
Experimental: as §1

How did the ALOMY damage score turn out when `CN(C)C(=O)c1cccc(-c2cnc(N3C(=O)N(C)CC3O)cc2C(F)(F)F)c1` (stereo not drawn) [Compound A12] was run?
The ALOMY damage score was 2.

`CN1CC(O)N(c2cc(C(F)(F)F)c(-c3ccc(F)cc3)cn2)C1=O` (stereo not drawn) [Compound A2] was tested. Which ALOMY damage score did it give?
Its ALOMY damage score is 5.

For `COc1ccc(-c2cnc(N3C(=O)N(C)CC3O)cc2C(F)(F)F)c(OC)c1` (stereo not drawn) [Compound A15], which ALOMY damage score is on record?
Its ALOMY damage score is 3.

Which ALOMY damage score does the source give for `COCc1cccc(-c2cnc(N3C(=O)N(C)CC3O)cc2C(F)(F)F)c1` (stereo not drawn) [Compound A13] here?
The ALOMY damage score was 3.

tested on: Setaria faberi; assay: Post-emergence herbicidal activity, SETFA; assay type: in vivo; conditions: Application post-emergence, 1000 g/Ha, evaluated after 13 days, scale 0-5
Experimental: as §1

`CN(C)C(=O)c1cccc(-c2cnc(N3C(=O)N(C)CC3O)cc2C(F)(F)F)c1` (stereo not drawn) [Compound A12] was tested. Which SETFA damage score did it give?
The SETFA damage score was 5.

With `CN1CC(O)N(c2cc(C(F)(F)F)c(-c3ccc(F)cc3)cn2)C1=O` (stereo not drawn) [Compound A2] as the molecule, how does the SETFA damage score read?
The SETFA damage score was 5.

`COc1ccc(-c2cnc(N3C(=O)N(C)CC3O)cc2C(F)(F)F)c(OC)c1` (stereo not drawn) [Compound A15] was tested. Which SETFA damage score did it give?
The SETFA damage score was 3.

With `COCc1cccc(-c2cnc(N3C(=O)N(C)CC3O)cc2C(F)(F)F)c1` (stereo not drawn) [Compound A13] as the molecule, how does the SETFA damage score read?
Its SETFA damage score is 4.

tested on: Alopecurus myosuroides; assay: Pre-emergence herbicidal activity, ALOMY; assay type: in vivo; conditions: Application pre-emergence, 1000 g/Ha, evaluated after 13 days, scale 0-5
Experimental: as §1, with “After” for “After 8 days”, “for one day (pre-emergence)” for “(post-emergence)”

`CN(C)C(=O)c1cccc(-c2cnc(N3C(=O)N(C)CC3O)cc2C(F)(F)F)c1` (stereo not drawn) [Compound A12] was tested. Which ALOMY damage score did it give?
The ALOMY damage score was 0.

`CN1CC(O)N(c2cc(C(F)(F)F)c(-c3ccc(F)cc3)cn2)C1=O` (stereo not drawn) [Compound A2] was tested. Which ALOMY damage score did it give?
The ALOMY damage score was 4.

Which ALOMY damage score does the source give for `COc1ccc(-c2cnc(N3C(=O)N(C)CC3O)cc2C(F)(F)F)c(OC)c1` (stereo not drawn) [Compound A15] here?
Its ALOMY damage score is 1.

How did the ALOMY damage score turn out when `COCc1cccc(-c2cnc(N3C(=O)N(C)CC3O)cc2C(F)(F)F)c1` (stereo not drawn) [Compound A13] was run?
Its ALOMY damage score is 2.

tested on: Setaria faberi; assay: Pre-emergence herbicidal activity, SETFA; assay type: in vivo; conditions: Application pre-emergence, 1000 g/Ha, evaluated after 13 days, scale 0-5
Experimental: as §1, with “After” for “After 8 days”, “for one day (pre-emergence)” for “(post-emergence)”

For `CN(C)C(=O)c1cccc(-c2cnc(N3C(=O)N(C)CC3O)cc2C(F)(F)F)c1` (stereo not drawn) [Compound A12], which SETFA damage score is on record?
The SETFA damage score was 1.

Which SETFA damage score does the source give for `CN1CC(O)N(c2cc(C(F)(F)F)c(-c3ccc(F)cc3)cn2)C1=O` (stereo not drawn) [Compound A2] here?
Its SETFA damage score is 5.

For `COc1ccc(-c2cnc(N3C(=O)N(C)CC3O)cc2C(F)(F)F)c(OC)c1` (stereo not drawn) [Compound A15], which SETFA damage score is on record?
The SETFA damage score was 2.

With `COCc1cccc(-c2cnc(N3C(=O)N(C)CC3O)cc2C(F)(F)F)c1` (stereo not drawn) [Compound A13] as the molecule, how does the SETFA damage score read?
The SETFA damage score was 2.

tested on: Amaranthus retroflexus; assay: Pre-emergence herbicidal activity, AMARE; assay type: in vivo; conditions: Application pre-emergence, 1000 g/Ha, evaluated after 13 days, scale 0-5
Experimental: as §1, with “After” for “After 8 days”, “for one day (pre-emergence)” for “(post-emergence)”

With `CN(C)C(=O)c1cccc(-c2cnc(N3C(=O)N(C)CC3O)cc2C(F)(F)F)c1` (stereo not drawn) [Compound A12] as the molecule, how does the AMARE damage score read?
The AMARE damage score was 1.

For `CN1CC(O)N(c2cc(C(F)(F)F)c(-c3ccc(F)cc3)cn2)C1=O` (stereo not drawn) [Compound A2], which AMARE damage score is on record?
The AMARE damage score was 5.

With `COc1ccc(-c2cnc(N3C(=O)N(C)CC3O)cc2C(F)(F)F)c(OC)c1` (stereo not drawn) [Compound A15] as the molecule, how does the AMARE damage score read?
The AMARE damage score was 2.

Which AMARE damage score does the source give for `COCc1cccc(-c2cnc(N3C(=O)N(C)CC3O)cc2C(F)(F)F)c1` (stereo not drawn) [Compound A13] here?
The AMARE damage score was 3.

tested on: Echinochloa crus-galli; assay: Post-emergence herbicidal activity, ECHCG; assay type: in vivo; conditions: Application post-emergence, 1000 g/Ha, evaluated after 13 days, scale 0-5
Experimental: as §1

With `CN(C)C(=O)c1cccc(-c2cnc(N3C(=O)N(C)CC3O)cc2C(F)(F)F)c1` (stereo not drawn) [Compound A12] as the molecule, how does the ECHCG damage score read?
The ECHCG damage score was 2.

`CN1CC(O)N(c2cc(C(F)(F)F)c(-c3ccc(F)cc3)cn2)C1=O` (stereo not drawn) [Compound A2] was tested. Which ECHCG damage score did it give?
The ECHCG damage score was 5.

`COc1ccc(-c2cnc(N3C(=O)N(C)CC3O)cc2C(F)(F)F)c(OC)c1` (stereo not drawn) [Compound A15] was tested. Which ECHCG damage score did it give?
Its ECHCG damage score is 4.

With `COCc1cccc(-c2cnc(N3C(=O)N(C)CC3O)cc2C(F)(F)F)c1` (stereo not drawn) [Compound A13] as the molecule, how does the ECHCG damage score read?
Its ECHCG damage score is 4.

tested on: Zea mays; assay: Post-emergence herbicidal activity, ZEAMX; assay type: in vivo; conditions: Application post-emergence, 1000 g/Ha, evaluated after 13 days, scale 0-5
Experimental: as §1

With `CN(C)C(=O)c1cccc(-c2cnc(N3C(=O)N(C)CC3O)cc2C(F)(F)F)c1` (stereo not drawn) [Compound A12] as the molecule, how does the ZEAMX damage score read?
The ZEAMX damage score was 2.

How did the ZEAMX damage score turn out when `CN1CC(O)N(c2cc(C(F)(F)F)c(-c3ccc(F)cc3)cn2)C1=O` (stereo not drawn) [Compound A2] was run?
The ZEAMX damage score was 4.

Which ZEAMX damage score does the source give for `COc1ccc(-c2cnc(N3C(=O)N(C)CC3O)cc2C(F)(F)F)c(OC)c1` (stereo not drawn) [Compound A15] here?
The ZEAMX damage score was 1.

`COCc1cccc(-c2cnc(N3C(=O)N(C)CC3O)cc2C(F)(F)F)c1` (stereo not drawn) [Compound A13] was tested. Which ZEAMX damage score did it give?
Its ZEAMX damage score is 2.

tested on: Echinochloa crus-galli; assay: Pre-emergence herbicidal activity, ECHCG; assay type: in vivo; conditions: Application pre-emergence, 1000 g/Ha, evaluated after 13 days, scale 0-5
Experimental: as §1, with “After” for “After 8 days”, “for one day (pre-emergence)” for “(post-emergence)”

How did the ECHCG damage score turn out when `CN(C)C(=O)c1cccc(-c2cnc(N3C(=O)N(C)CC3O)cc2C(F)(F)F)c1` (stereo not drawn) [Compound A12] was run?
Its ECHCG damage score is 1.

`CN1CC(O)N(c2cc(C(F)(F)F)c(-c3ccc(F)cc3)cn2)C1=O` (stereo not drawn) [Compound A2] was tested. Which ECHCG damage score did it give?
The ECHCG damage score was 5.

With `COc1ccc(-c2cnc(N3C(=O)N(C)CC3O)cc2C(F)(F)F)c(OC)c1` (stereo not drawn) [Compound A15] as the molecule, how does the ECHCG damage score read?
The ECHCG damage score was 1.

For `COCc1cccc(-c2cnc(N3C(=O)N(C)CC3O)cc2C(F)(F)F)c1` (stereo not drawn) [Compound A13], which ECHCG damage score is on record?
The ECHCG damage score was 2.
